The IC50 is the point on the concentration scale where inhibition reaches its midpoint. A low value points to inhibition by little substance.

For the assay, the target named is Coagulation factor XI (Homo sapiens, UniProt P03951). The assay is described as follows: human FXIa inhibitor potency, dose response, biochemical (AID 679).
Coagulation factor XI, sequence (P03951 19-387 limits assumed): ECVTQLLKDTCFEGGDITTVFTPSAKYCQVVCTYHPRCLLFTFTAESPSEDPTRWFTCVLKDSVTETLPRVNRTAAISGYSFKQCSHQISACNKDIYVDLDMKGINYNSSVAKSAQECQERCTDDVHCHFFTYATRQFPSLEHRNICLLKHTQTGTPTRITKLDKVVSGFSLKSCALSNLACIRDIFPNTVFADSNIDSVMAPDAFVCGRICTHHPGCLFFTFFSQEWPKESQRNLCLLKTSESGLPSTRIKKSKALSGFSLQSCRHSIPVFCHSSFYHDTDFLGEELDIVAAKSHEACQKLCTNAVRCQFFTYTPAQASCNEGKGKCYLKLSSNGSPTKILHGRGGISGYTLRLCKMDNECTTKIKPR
Coagulation factor XI, sequence (P03951 388-625 limits assumed): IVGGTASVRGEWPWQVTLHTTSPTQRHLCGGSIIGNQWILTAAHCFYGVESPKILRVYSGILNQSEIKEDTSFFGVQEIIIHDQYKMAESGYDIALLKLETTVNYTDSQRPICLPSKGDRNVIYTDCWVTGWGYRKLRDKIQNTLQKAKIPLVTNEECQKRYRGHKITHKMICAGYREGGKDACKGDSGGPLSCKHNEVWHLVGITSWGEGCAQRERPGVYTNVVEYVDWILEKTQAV
The molecule `CCOC(=O)N=S(=O)(Oc1ccc([N+](=O)[O-])cc1)c1ccccc1` (stereo not given) [N-[(4-nitrophenoxy)-oxo-phenyl--sulfanylidene]carbamic acid ethyl ester] registered an IC50 of over 50 µM.
In the case of `COc1ccc(OCCSc2nc[nH]n2)cc1` [5-[2-(4-methoxyphenoxy)ethylsulfanyl]-1H-1,2,4-triazole] it was over 50 µM.
In the case of `O=C(Oc1cccc(-n2cnnn2)c1)c1ccco1` [SMR000117840] it was 4.06 µM; in that of `CC(C)c1nc2ccc(NC(=O)C3CCCCC3)cc2[nH]1` [Cyclohexanecarboxylic acid (2-isopropyl-1H-benzoimidazol-5-yl)-amide], over 50 µM.
`N#Cc1cc2c(nc1SCC(=O)Nc1sc3c(c1C#N)CCC3)CCC2` had a half-inhibitory concentration (IC50) of over 50 µM.
In the case of `OCCCn1c(-c2ccccc2)nc(=S)c2c1CCCC2` it was over 50 µM; in that of `O=c1nc(-c2ccccc2)c2cc(Cl)ccc2[nH]1`, over 50 µM.
For the molecule `COCC/N=C1\Sc2nc3c(C)cccc3cc2CN1Cc1ccco1` [SMR000122349], it took 0.745 µM to reach half-maximal inhibition (IC50).
Under `O=C(c1ccc(F)cc1)N1CCN(C(=O)c2cccnc2)CC1` [SMR000140978] stands over 50 µM; under `COc1cc(OC)c2c(N)c(C#N)c(C(F)(F)C(F)(F)F)nc2c1` [4-azanyl-5,7-dimethoxy-2-[1,1,2,2,2-pentakis(fluoranyl)ethyl]quinoline-3-carbonitrile], over 50 µM.
The molecule `COc1cc(C=c2sc3n(c2=O)CCCN=3)ccc1O` [SMR000126740] gave an IC50 of over 50 µM.
In the case of `Cn1c(SCC(=O)NC2CCCCC2)nnc1-c1cccc(N)c1` [2-[5-(3-Amino-phenyl)-4-methyl-4H-[1,2,4]triazol-3-ylsulfanyl]-N-cyclohexyl-acetamide] it was over 50 µM.
Regarding `Cc1ccc(N(C(=O)c2ccccn2)C2(C(=O)NC3CCCC3)CCCCC2)cc1` [N-[1-(cyclopentylcarbamoyl)cyclohexyl]-N-(4-methylphenyl)pyridine-2-carboxamide], the 50% inhibitory concentration (IC50) was over 50 µM.
Under `N#Cc1c(N)nc2c(c1N)=C(N)SC1=NC(=O)CC(c3ccccc3Cl)C=21` (stereo not given) [SMR000147835] stands over 50 µM.
Under `Cc1cc(C)n2nc(C(=O)Nc3ccc4c(c3)OCO4)cc2n1` [SMR000144727] stands over 50 µM.

These data come from BindingDB's records for doi:10.7270/Q2W957K6 (Pcmd, 2008).
